# Data taken from article PMC10671360, “In Silico and In Vitro Study towards the Rational Design of 4,4′-Disarylbisthiazoles as a Selective α-Synucleinopathy Biomarker” (International Journal of Molecular Sciences, 2023).
# Assays:
# [1] = biological target: T1, recombinant α-syn fibrils (Homo sapiens, UniProt P37840); experiment: Competition binding assay against [^3H]DCVJ, α-syn fibrils; conditions: for Selectivity Aβ/α-syn / Selectivity tau/α-syn: ratio of Ki, [^3H]DCVJ was used
# T1 construct: made in house
# Method: The incubation of purified recombinant α-synuclein monomer (10 mg/mL) obtained as described by Uzuegbunam was carried out in PBS (pH 7.4) at 37 °C. The solution was left shaking at 900 rpm in an Eppendorf Thermomixer for up to 84 h. Determination of the concentration of the formed fibrils (α-syn) was carried out following the centrifugation of the reaction vial at 12,000× g for 5 min. The pellet obtained was washed thrice with 20 mM of Tris-HCl, pH 7.4. The supernatants from the three centrifugation steps were combined, and the concentration of the monomer in the resulting supernatant was determined in a BCA assay (Thermo Fisher Scientific, Waltham, MA, USA) (with a BSA standard curve). Determination of the concentration of α-syn was carried out by subtracting the amount of α-synuclein monomer in the supernatant from the initial amount used for fibrillation.
# (§1) The pellets of the fibrils obtained above (Section 4.2.1) were resuspended in 20 mM of Tris-HCl, pH 7.4 and diluted as needed for the binding assays.
# (§2) A fixed concentration of [^3H]DCVJ (10 nM) and α-synuclein aggregates (125 nM), prepared as described above (Section 4.2.3), was used with different final concentrations of the DABTAs from 0.01 to 100 nM (see SI Figure S1). The experiment was carried out in quintuplicate for each concentration. The mixture was incubated for 2 h in a final volume of 200 μL per well after dilution with 20 mM of Tris-HCl, pH 7.4. The incubated mixtures were filtered through a Perkin Elmer GF/B glass filter via a TOMTEC cell harvester and immediately washed thrice with 1 mL of deionized water. The filters containing the bound ligands were dried and afterwards mixed with 3 mL of BetaPlate Scint solution (Perkin Elmer Life Sciences, Waltham, MA, USA) and left there for 2 h before counting in a Wallac 1450 MicroBeta TriLux Liquid Scintillation Counter (PerkinElmer Life Sciences, Waltham, MA, USA). For the determination of the inhibition constants, data were analyzed using GraphPad Prism software (version 7.0) to obtain IC50 values by fitting the data to the equation Y = bottom + (top − bottom)/(1 + 10(x − log IC50)). Ki values were calculated from IC50 values using the equation Ki = IC50/(1 + [radioligand]/Kd). […] Further protocol was carried out as for [^3H]DCVJ (see SI Figure S3).
# Aβ1−42 fibrils = biological target: T2, Aβ1−42 fibrils (Homo sapiens, UniProt P05067); experiment: Competition binding assay against [^3H]DCVJ, Aβ1−42 fibrils; conditions: [^3H]DCVJ was used (10 nM); Aβ1−42 aggregates 125 nM; read-out: Ki Aβ
# T2 construct: 1 mg of β-amyloid1–42 peptide (Abcam, Cambridge, UK); purchased Abcam
# Method: After the dissolution of 1 mg of β-amyloid1–42 peptide (Abcam, Cambridge, UK) in 50 μL of DMSO, 925 μL of Milli-Q® water was added to it, and the mixture was stirred. Finally, 25 μL of 1M Tris HCl, pH 7.4 was added to bring the final peptide concentration to 1 mg/mL. The mixture was then left to incubate at 37 °C for 30 h with shaking at 900 rpm. To separate the non-aggregated monomers from the formed fibrils, the reaction mixture was centrifuged at 12,000× g for 5 min, and the resulting pellet was washed three times with 500 μL of 20 mM Tris-HCl, pH 7.4. The supernatants from the three centrifugation steps were combined, and the concentration of the monomer in the resulting supernatant was determined in a BCA assay (Thermo Fisher Scientific, Waltham, MA, USA) (with a BSA standard curve). Determination of the concentration of fibrils formed was carried out by subtracting the amount of β-amyloid1−42 peptide monomer in the supernatant from the initial amount used for fibrillation.
# as §1, §2
# Fixed concentrations (125 nM) of Aβ1−42, tau aggregates, and [^3H]DCVJ (10 nM and 20 nM for the Aβ1−42 and tau competition experiments respectively) were used with different concentrations of cold versions of the tracers from 1 to 1000 nM (See SI Figure S2). The experiment was performed in quadruplicate for each concentration. […]
# tau fibrils = tau fibrils (Homo sapiens, UniProt P10636); experiment: Competition binding assay against [^3H]PiB, tau fibrils
# Method: as §2, with “Recombinant tau monomer (R&D systems, Minneapolis, MN, USA) was dissolved in 20 mM of Tris HCl, pH 8.0, 100 mM of NaCl, 25 μM of low-MW heparin, and 0.5 mM of dithiothreitol to a final concentration of 300 µg/mL. The mixture was incubated with shaking at 900 rpm at 37 °C for 48 h. To separate the non-aggregated monomers from the formed fibrils, the reaction mixture was centrifuged at 12,000× g for 5 min, and the resulting pellet was washed three times with 500 μL of 20 mM Tris-HCl, pH 7.4. The supernatants from the three centrifugation steps were combined, and the concentration of the monomer in the resulting supernatant was determined in a BCA assay(Thermo Fisher Scientific, Waltham, MA, USA) (with a BSA standard curve). Determination of the concentration of fibrils formed was carried out by subtracting the amount of tau peptide monomer in the supernatant from the initial amount used for fibrillation. The pellets of the fibrils obtained above (Section 4.2.1) were resuspended in 20 mM of Tris-HCl, pH 7.4 and diluted as needed for the binding assays. A fixed” for “A fixed”, “Figure S3). […] Further procedures followed the same already described in Section 4.2.3.1 (See SI Figure S4).” for “Figure S3).”
# [2] = [^3H]DCVJ was used (10 nM), α-synuclein aggregates 125 nM
# T2 sequence (P05067 672-713): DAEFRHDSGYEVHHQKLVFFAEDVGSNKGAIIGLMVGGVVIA
# Chain of tau fibrils (P10636 2-758): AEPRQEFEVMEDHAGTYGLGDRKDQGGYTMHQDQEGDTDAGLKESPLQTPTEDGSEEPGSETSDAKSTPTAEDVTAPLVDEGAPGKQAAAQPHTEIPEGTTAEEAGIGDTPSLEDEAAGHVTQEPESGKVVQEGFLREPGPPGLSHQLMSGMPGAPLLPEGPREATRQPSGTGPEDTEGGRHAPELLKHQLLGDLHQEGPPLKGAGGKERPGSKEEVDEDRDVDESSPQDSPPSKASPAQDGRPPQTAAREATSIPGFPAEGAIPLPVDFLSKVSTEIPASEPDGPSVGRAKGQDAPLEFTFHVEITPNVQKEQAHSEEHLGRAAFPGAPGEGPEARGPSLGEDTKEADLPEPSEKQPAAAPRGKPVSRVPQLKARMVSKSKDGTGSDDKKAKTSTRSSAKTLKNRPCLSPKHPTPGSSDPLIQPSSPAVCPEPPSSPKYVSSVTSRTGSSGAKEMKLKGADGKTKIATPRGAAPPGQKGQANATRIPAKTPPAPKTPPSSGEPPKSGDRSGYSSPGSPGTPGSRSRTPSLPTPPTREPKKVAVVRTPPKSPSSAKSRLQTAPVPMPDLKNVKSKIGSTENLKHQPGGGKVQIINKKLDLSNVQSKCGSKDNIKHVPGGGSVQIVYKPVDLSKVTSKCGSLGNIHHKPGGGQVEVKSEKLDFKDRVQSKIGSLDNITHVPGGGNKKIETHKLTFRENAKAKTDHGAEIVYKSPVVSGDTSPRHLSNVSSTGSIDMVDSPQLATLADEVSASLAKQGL
Structure (SMILES),"Ki [1, 2] [nM]",Selectivity Aβ/α-syn [1],Selectivity tau/α-syn [1],Ki (Aβ1−42 fibrils) [nM],Ki (tau fibrils) [nM],"Ki α-syn [1, 2]"
Fc1ncc(-c2csc(-c3nc(-c4cnc5c(c4)OCO5)cs3)n2)cn1 [d10],1.36,299.1,>735.3,407,434,
"FCCOc1cnc(-c2csc(-c3nc(-c4cnc5c(c4)OCO5)cs3)n2)nc1 [f4, 6-(4′-(5-(2-Fluoroethoxy)pyrimidin-2-yl)-[2,2′-bithiazol]-4-yl)-[1,3]dioxolo[4,5-b]pyridine]",0.99,253.1,469.6,251,766,
"FCCOc1cnc(-c2csc(-c3nc(-c4ccc5c(c4)OCO5)cs3)n2)nc1 [f5, 4-(Benzo[d][1,3]dioxol-5-yl)-4′-(5-(2-fluoroethoxy)pyrimidin-2-yl)-2,2′-bithiazole]",2.27,58.9,227.0,134,516,
"FCCOCCOc1cnc(-c2csc(-c3nc(-c4ccc5c(c4)OCO5)cs3)n2)nc1 [f6, 4-(Benzo[d][1,3]dioxol-5-yl)-4′-(5-(2-(2-fluoroethoxy)ethoxy)pyrimidin-2-yl)-2,2′-bithiazole]",0.5,395.6,874.4,198,362,subnanomolar
